From patent US9234000B2, “Benzylamine derivatives as inhibitors of plasma kallikrein” (KalVista Pharmaceuticals Limited, priority 2011, dated 2016) come the findings set out here.

The nature of data set [1]: Determination of thermodynamic solubility in phosphate buffer. The format is physicochemical. The following applies: pH 7.4, aqueous buffer, thermodynamic from solid, ammonium phosphate buffer pH7.4, 290 mOsm, 37° C., nominal 1 mg/mL, read-out: Solubility in PO4 buffer. The procedure: Determination of Thermodynamic Solubility in Phosphate Buffer
The thermodynamic solubility of compound was determined in Ammonium Phosphate Buffer (pH7.4, 290 mOsm). Compounds were made up at a nominal concentration of 1 mg/mL, vortexed then placed on a shaker for 1 h, 37° C. at approximately 950 rpm. Following incubation samples were transferred to eppendorf tubes and centrifuged at 15,000 g (r.c.f.) for 10 minutes at 37° C. The concentration of compound in the supernatant was determined by LC-MS/MS analysis using a calibration line prepared from a DMSO stock.

Another data set deals with Human KLK1 (Homo sapiens (Human), UniProt P06870). As to the kind of experiment: Determination of the IC50 for KLK1. Format: biochemical. The following applies: Human KLK1, 37° C., substrate H-DVal-Leu-Arg-AFC; Table 12. The method, boiled down:
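Human KLK1 incubated at 37 °C with fluorogenic substrate H-DVal-Leu-Arg-AFC and a range of test compound concentrations. Residual activity was taken as initial reaction rate from absorbance change at 410 nm, and the IC50 derived from it.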

The next data set in a line: physchem. The following applies: for solubility in PO4 buffer: pH 7. The procedure: Determination of the Kinetic Solubility in Phosphate Buffer
After shaking for approximately 30 seconds the reduction in light transmission of these samples, at 650 nm, was measured (Molecular Devices Spectromax UV/visible spectrophotometer). A second measurement was taken at approximately 30 seconds later.

For another data set, the target named is Human plasma kallikrein (Homo sapiens (Human), UniProt P03952). Kind of data set: Determination of the IC50 for plasma kallikrein. Format: biochemical. The conditions noted are these: fluorogenic substrate H-DPro-Phe-Arg-AFC, 37° C., read-out: IC50 (human PKal). The method, boiled down:
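Human plasma kallikrein incubated at 37° C with fluorogenic substrate H-DPro-Phe-Arg-AFC and varying compound concentrations. Initial reaction rate followed by absorbance change at 410 nm to give residual activity and IC50.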

Molecules are shown by their SMILES. pIC50: −log10 of the molar value. Converted amounts (≈) assume the structure as drawn.

Chain of Human KLK1 (P06870 25-262): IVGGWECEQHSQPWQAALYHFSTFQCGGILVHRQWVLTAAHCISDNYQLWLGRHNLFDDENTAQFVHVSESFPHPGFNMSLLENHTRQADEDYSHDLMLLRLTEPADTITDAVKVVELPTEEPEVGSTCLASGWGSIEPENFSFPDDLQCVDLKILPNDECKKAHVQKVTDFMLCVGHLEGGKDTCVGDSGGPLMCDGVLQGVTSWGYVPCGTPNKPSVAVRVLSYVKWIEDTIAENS
Chain of Human plasma kallikrein (P03952 391-638): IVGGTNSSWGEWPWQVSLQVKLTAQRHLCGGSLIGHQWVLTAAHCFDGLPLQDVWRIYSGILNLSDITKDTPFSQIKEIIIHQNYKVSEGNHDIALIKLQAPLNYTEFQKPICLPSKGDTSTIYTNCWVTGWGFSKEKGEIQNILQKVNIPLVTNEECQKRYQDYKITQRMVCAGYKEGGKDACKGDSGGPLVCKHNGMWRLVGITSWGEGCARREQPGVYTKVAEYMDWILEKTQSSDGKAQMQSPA
Chain of Human plasma kallikrein (P03952 20-390 partner): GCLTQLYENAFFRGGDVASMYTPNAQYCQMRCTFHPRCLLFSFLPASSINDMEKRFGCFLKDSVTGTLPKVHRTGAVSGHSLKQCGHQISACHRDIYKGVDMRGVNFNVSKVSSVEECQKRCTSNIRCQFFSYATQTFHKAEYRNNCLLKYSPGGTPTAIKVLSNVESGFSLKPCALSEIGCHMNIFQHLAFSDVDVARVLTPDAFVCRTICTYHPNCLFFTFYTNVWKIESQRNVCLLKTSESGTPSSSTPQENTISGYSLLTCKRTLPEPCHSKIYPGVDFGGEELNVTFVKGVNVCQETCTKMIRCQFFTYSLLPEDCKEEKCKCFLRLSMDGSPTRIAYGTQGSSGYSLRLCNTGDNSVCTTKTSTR

With `CCOc1ccc(C[C@@H](NC(=O)c2ccc(C)cc2)C(=O)N[C@@H](Cc2ccccc2)C(=O)NCc2ccc(CN)cc2)cc1` [Example 92, N-[(R)-1-[(S)-1-(4-Aminomethyl-benzylcarbamoyl)-2-phenyl-ethylcarbamoyl]-2-(4-ethoxy-phenyl)-ethyl]-4-methyl-benzamide], the solubility at 1 h in data set [1] was 0.2 µg/mL (≈ 0.337 µM).
With `CCOc1ccc(C[C@@H](NC(=O)CC)C(=O)N[C@@H](Cc2ccccc2)C(=O)N(C)Cc2ccc(CN)cc2)cc1` [Example 24, (S)-N-(4-Aminomethyl-benzyl)-2-[(R)-3-(4-ethoxy-phenyl)-2-propionylamino-propionylamino]-N-methyl-3-phenyl-propionamide], the pIC50 is < 5.00 on Human KLK1 and 6.35 on Human plasma kallikrein. Further, in “physchem”, the solubility in PO4 buffer was > 235 µM.
As to `CN(CC(=O)O)[C@H](CC1CCCCC1)C(=O)N[C@@H](Cc1ccc(Cl)c(Cl)c1)C(=O)NCc1ccc(CN)c(F)c1` [Example 43, ({(R)-1-[(S)-1-(4-Aminomethyl-3-fluoro-benzylcarbamoyl)-2-(3,4-dichloro-phenyl)-ethylcarbamoyl]-2-cyclohexyl-ethyl}-methyl-amino)-acetic acid], the negative-log IC50 (pIC50) on Human KLK1 is < 5.00; at Human plasma kallikrein, 5.89. For the same compound, the solubility in PO4 buffer in “physchem” was > 235 µM.
On the same counts, the results for `CN(CC(=O)O)[C@H](CC1CCCCC1)C(=O)N[C@@H](Cc1ccccc1)C(=O)NCc1ccc(CN)cc1` [Example 29, ({(R)-1-[(S)-1-(4-Aminomethyl-benzylcarbamoyl)-2-phenyl-ethylcarbamoyl]-2-cyclohexyl-ethyl}-methyl-amino)-acetic acid] are < 5.00, 6.52 and > 235 µM.
In the same order, the values of `CCOc1ccc(C[C@H](C(=O)N[C@@H](Cc2ccccc2)C(=O)NCc2ccc(CN)cc2)N(C)C(=O)CC)cc1` [Example 31, (S)-N-(4-Aminomethyl-benzyl)-2-[(R)-3-(4-ethoxy-phenyl)-2-(methyl-propionyl-amino)-propionylamino]-3-phenyl-propionamide] are 5.02, 5.37 and > 235 µM.
`NCc1ccc(CNC(=O)[C@H](Cc2ccccc2)NC(=O)[C@H](N)C(C2CCCCC2)C2CCCCC2)cc1` [Example 52, (R)-2-Amino-N-[(S)-1-(4-aminomethyl-benzylcarbamoyl)-2-phenyl-ethyl]-3,3-dicyclohexyl-propionamide]: the figures for the negative-log IC50 (pIC50) on Human KLK1 and at Human plasma kallikrein were 5.02 and 6.07, respectively. In addition, the solubility in PO4 buffer in the data set “physchem” is > 235 µM.
In the same order, the values of `CN(CC(=O)O)[C@H](CC1CCCCC1)C(=O)N[C@@H](Cc1ccccc1)C(=O)NCc1ccc(CN)c(F)c1` [Example 42, ({(R)-1-[(S)-1-(4-Aminomethyl-3-fluoro-benzylcarbamoyl)-2-phenyl-ethylcarbamoyl]-2-cyclohexyl-ethyl}-methyl-amino)-acetic acid] are < 5.00, 6.28 and > 235 µM.
In the same order, the values of `NCc1ccc(CNC(=O)[C@H](Cc2ccccc2)NC(=O)[C@@H](CC2CCCCC2)NCC(=O)O)cc1` [Example 4, {(R)-1-[(S)-1-(4-Aminomethyl-benzylcarbamoyl)-2-phenyl-ethylcarbamoyl]-2-cyclohexyl-ethylamino}-acetic acid] are < 5.00, 6.64 and > 235 µM.
As for `CN(C(=O)[C@@H](CC1CCCCC1)NCC(=O)O)[C@@H](Cc1ccccc1)C(=O)NCc1ccc(CN)c(F)c1` [Example 34, ((R)-1-{[(S)-1-(4-Aminomethyl-3-fluoro-benzylcarbamoyl)-2-phenyl-ethyl]-methyl-carbamoyl}-2-cyclohexyl-ethylamino)-acetic acid], the pIC50 is 5.11 against Human KLK1 and 5.85 at Human plasma kallikrein. In addition, the solubility in PO4 buffer in “physchem” was > 235 µM.
Regarding `CN(C)[C@H](CC1CCCCC1)C(=O)N[C@@H](Cc1ccccc1)C(=O)NCc1ccc(CN)cc1` [Example 9, (R)-N-[(S)-1-(4-Aminomethyl-benzylcarbamoyl)-2-phenyl-ethyl]-3-cyclohexyl-2-dimethylamino-propionamide], the negative logarithm of the IC50 (pIC50) is < 6.00 against Human KLK1 and 5.70 on Human plasma kallikrein. Moreover, the solubility in PO4 buffer in the data set “physchem” was > 235 µM.
In the same order, the values of `CCCN[C@H](CC1CCCCC1)C(=O)N[C@@H](Cc1ccccc1)C(=O)NCc1ccc(CN)cc1` [Example 37, (R)-N-[(S)-1-(4-Aminomethyl-benzylcarbamoyl)-2-phenyl-ethyl]-3-cyclohexyl-2-propylamino-propionamide] are < 5.00, 6.04 and > 235 µM.
On the same counts, the results for `CN(C(=O)[C@@H](CC1CCCCC1)NCC(=O)O)[C@@H](Cc1ccccc1)C(=O)NCc1ccc(CN)cc1` [Example 30, ((R)-1-{[(S)-1-(4-Aminomethyl-benzylcarbamoyl)-2-phenyl-ethyl]-methyl-carbamoyl}-2-cyclohexyl-ethylamino)-acetic acid] are < 5.00, 6.24 and > 235 µM.
With `CCCN(CCC)[C@H](CC1CCCCC1)C(=O)N[C@@H](Cc1ccccc1)C(=O)NCc1ccc(CN)cc1` [Example 53, (R)-N-[(S)-1-(4-Aminomethyl-benzylcarbamoyl)-2-phenyl-ethyl]-3-cyclohexyl-2-dipropylamino-propionamide], the pIC50 against Human KLK1 was < 5.00; at Human plasma kallikrein, 6.19. In addition, the solubility in PO4 buffer in the data set “physchem” is > 235 µM.
On the same counts, the results for `CCOc1ccc(C[C@@H](NCC(=O)O)C(=O)N[C@@H](Cc2ccccc2)C(=O)NCc2ccc(CN)cc2)cc1` [Example 17, [(R)-1-[(S)-1-(4-Aminomethyl-benzylcarbamoyl)-2-phenyl-ethylcarbamoyl]-2-(4-ethoxy-phenyl)-ethylamino]-acetic acid] are < 5.00, 5.24 and > 235 µM.
On the same counts, the results for `CCOc1ccc(C[C@@H](NC(=O)CC)C(=O)N[C@@H](Cc2ccccc2)C(=O)NCc2ccc(CN)cc2)cc1` [Example 1, (S)—N-(4-Aminomethyl-benzyl)-2-[(R)-3-(4-ethoxy-phenyl)-2-propionylamino-propionylamino]-3-phenyl-propionamide] are < 6.00, 7.05 and > 235 µM.
On to `CCC(=O)N[C@H](CC1CCCCC1)C(=O)N[C@@H](Cc1ccc(Cl)c(Cl)c1)C(=O)NCc1ccc(CN)cc1` [Example 21, (R)-N-[(S)-1-(4-Aminomethyl-benzylcarbamoyl)-2-(3,4-dichloro-phenyl)-ethyl]-3-cyclohexyl-2-propionylamino-propionamide], for which the figures for the pIC50 against Human KLK1 and on Human plasma kallikrein were 5.00 and 5.29, respectively. The solubility in “physchem” (pH 7, aqueous buffer, kinetic from dmso stock) is 12 µM (≈ 6.74 µg/mL).
In the case of `CCCN[C@H](Cc1ccc(OCC)cc1)C(=O)N(C)[C@@H](Cc1ccccc1)C(=O)NCc1ccc(CN)cc1` [Example 35, (R)-N-[(S)-1-(4-Aminomethyl-benzylcarbamoyl)-2-phenyl-ethyl]-3-(4-ethoxy-phenyl)-N-methyl-2-propylamino-propionamide], the pIC50 at Human KLK1 was < 5.00; on Human plasma kallikrein, 5.70. Moreover, the solubility in PO4 buffer in the data set “physchem” is > 235 µM.
In the same order, the values of `CCOc1ccc(C[C@@H](NC(=O)C(C)C)C(=O)N(C)[C@@H](Cc2ccccc2)C(=O)NCc2ccc(CN)cc2)cc1` [Example 44, N-[(R)-1-{[(S)-1-(4-Aminomethyl-benzylcarbamoyl)-2-phenyl-ethyl]-methyl-carbamoyl}-2-(4-ethoxy-phenyl)-ethyl]-isobutyramide] are < 5.00, 6.74 and > 235 µM.
Turning to `CN[C@H](CC1CCCCC1)C(=O)N[C@@H](Cc1ccc(Cl)c(Cl)c1)C(=O)NCc1ccc(CN)c(F)c1` [Example 41, (R)-N-[(S)-1-(4-Aminomethyl-3-fluoro-benzylcarbamoyl)-2-(3,4-dichloro-phenyl)-ethyl]-3-cyclohexyl-2-methylamino-propionamide], the negative-log IC50 (pIC50) on Human KLK1 is 5.60; on Human plasma kallikrein, 5.89. Also, the solubility in PO4 buffer in “physchem” was > 235 µM.
As for `CCOc1ccc(C[C@@H](N)C(=O)N[C@@H](Cc2ccccc2)C(=O)NCc2ccc(CN)cc2)cc1` [Example 5, (R)-2-Amino-N-[(S)-1-(4-aminomethyl-benzylcarbamoyl)-2-phenyl-ethyl]-3-(4-ethoxy-phenyl)-propionamide], the results for the pIC50 against Human KLK1 and on Human plasma kallikrein were 6.80 and 6.34, respectively. In addition, in the data set “physchem”, the solubility in PO4 buffer was > 235 µM.
On to `NCc1ccc(CNC(=O)[C@H](Cc2ccccc2)NC(=O)[C@@H](CC2CCCCC2)NCCO)cc1` [Example 51, (R)-N-[(S)-1-(4-Aminomethyl-benzylcarbamoyl)-2-phenyl-ethyl]-3-cyclohexyl-2-(2-hydroxy-ethylamino)-propionamide], for which the results for the pIC50 against Human KLK1 and at Human plasma kallikrein were < 5.00 and 6.00, respectively. Besides, in the data set “physchem”, the solubility in PO4 buffer is > 235 µM.

For orientation: solubility means the dissolved amount per volume that the medium holds. Broadly, the pIC50 is the IC50 on a negative log10 scale, so that one unit is a factor of ten.
